According to US20070208069A1, “PHARMACEUTICAL FORMULATIONS OF AN ANHYDROUS CRYSTAL FORM OF 2-(3-FLUORO-4-HYDROXYPHENYL)-7-VINYL-1,3-BENZOXAZOL-5-OL” (Wyeth, priority 2006, published 2007):

Key:
Assay type in all cases: physicochemical
[1] = Solid-state stability of crystal forms (XRPD, TGA); details: for Long term crystal form stability (XRPD, TGA): three months (monohydrate also 40° C. without humidity control)
Description: […] At room temperature, humidity was maintained at 0% RH. Humidity was not controlled for the higher temperatures.
The samples were analyzed by XRPD and TGA.
(§1) Non-micronized samples of monohydrate and anhydrate were stored at 40° C./75% RH for three months. The monohydrate was also stored at 40° C. without humidity control. During the three months, the samples were checked after two weeks, one month, two months, and three months.

[2] = Dynamic vapor sorption (hygroscopicity); details: for DVS gain: 0–90% RH
From the text: Dynamic Vapor Sorption (Allentown, Pa.) was used to measure the hygroscopicity of the anhydrate and monohydrate of the invention (see FIGS. 6 and 7). The step conditions were three hours each at 0%, 30%, 52.5%, 75% and 90% RH, two full cycles.

[3] = Chemical stability on storage (HPLC); details: non-micronized, 40° C./75% RH, three months
Description: as §1

[4] = Water solubility of the two crystal forms

Crystal form stability (XRPD) ([1]; micronized, 25° C./60% RH, three months) | Crystal form stability (XRPD) ([1]; non-micronized, 40° C./75% RH) | Long term crystal form stability (XRPD, TGA) ([1]; non-micronized, 40° C./75% RH) | Hygroscopicity (DVS), in words [2] | DVS gain [2] | Long term chemical stability (HPLC) [3] | Medium term stability (XRPD, TGA) ([1]; 56° C., humidity not controlled, one week) | Medium term stability (XRPD, TGA) ([1]; 70° C., 1 day) | Medium term stability (XRPD, TGA) ([1]; 70° C., 4 days) | Medium term stability (XRPD, TGA) ([1]; 70° C., 7 days) | Short term stability (XRPD) ([1]; 70° C., one hour) | Short term stability (XRPD) ([1]; 90° C., one half hour) | Short term stability (XRPD) ([1]; 90° C., one hour) | Medium term stability (XRPD, TGA) ([1]; room temperature, 0% RH, one week) | Compound | Crystal form stability (XRPD) ([1]; micronized, 40° C./75% RH, one month) | Water solubility compared between forms, in words [4]
did not transform to the monohydrate | did not show any obvious transformation | did not transform | largely non-hygroscopic | 0.2% gain (0–90% RH) | chemically stable | – | – | – | – | – | – | – | – | C=Cc1cc(O)cc2nc(-c3ccc(O)c(F)c3)oc12 [Anhydrate, 2-(3-fluoro-4-hydroxyphenyl)-7-vinyl-1,3-benzoxazol-5-ol] | did partially transform to the monohydrate | –
– | – | did not transform | largely non-hygroscopic | 0.1% gain (0–90% RH) | chemically stable | no obvious dehydration | no obvious hydration | partially dehydrated | mostly dehydrated | stable | partially dehydrated | completely dehydrated | no obvious dehydration | C=Cc1cc(O)cc2nc(-c3ccc(O)c(F)c3)oc12 [Monohydrate, 2-(3-fluoro-4-hydroxyphenyl)-7-vinyl-1,3-benzoxazol-5-ol] | – | significantly lower solubility than the anhydrate
